Read-outs that look alike come from different tables or passages of the source.
Columns and labels:
[1] = target: T1, MycN (Homo sapiens, UniProt P04198); assay: Degradation of MycN protein in SK-N-BE(2) cells, JESS/Western blot of lysates; format: cell-based; settings: SKNBE2, 24 h; for Dmax at 0.5 µM: read-out: % Degradation of MycN (SKNBE2) 24 h, 0.5 μM; for Dmax at 1 µM: read-out: % Degradation of MycN (SKNBE2) 24 h, 1 μM; for Dmax at 3 µM: read-out: % Degradation of MycN (SKNBE2) 24 h, 3 μM; for Dmax at 6 µM: read-out: % Degradation of MycN (SKNBE2) 24 h, 6 μM
T1 construct: endogenous in cells; host or cells: SK-N-BE(2)
T1 sequence (P04198 1-464): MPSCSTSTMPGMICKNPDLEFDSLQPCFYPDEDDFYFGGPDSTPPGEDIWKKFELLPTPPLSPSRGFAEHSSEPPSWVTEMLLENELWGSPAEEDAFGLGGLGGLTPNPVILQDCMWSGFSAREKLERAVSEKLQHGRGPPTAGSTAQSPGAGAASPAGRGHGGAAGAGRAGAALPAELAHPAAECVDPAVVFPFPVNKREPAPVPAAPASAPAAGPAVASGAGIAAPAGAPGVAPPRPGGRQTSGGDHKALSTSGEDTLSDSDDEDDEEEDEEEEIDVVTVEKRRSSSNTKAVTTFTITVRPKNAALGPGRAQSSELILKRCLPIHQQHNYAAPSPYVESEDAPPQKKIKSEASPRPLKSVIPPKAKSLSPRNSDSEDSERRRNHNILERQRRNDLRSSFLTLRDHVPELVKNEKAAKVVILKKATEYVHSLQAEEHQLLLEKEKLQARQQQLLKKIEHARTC
Outline: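 SK-N-BE(2) adherent cells (5E5 per well of a 6 well dish) were grown 24 hrs, then exposed to compounds diluted 1 in 20 in media, with DMSO controls, for 24 hrs. Cells were scraped, pelleted, PBS washed and lysed in RIPA buffer cocktail; after BCA protein quantitation, n-myc was detected by chemiluminescence on JESS/Western blot with tubulin and GAPDH loading controls read in the near infra red channel.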

[2] = target: T2, MycC (Homo sapiens, UniProt P01106); assay: Degradation of MycC protein in L363 cells, JESS/Western blot of lysates; format: cell-based; settings: L-363, 24 h; for Dmax at 3 µM: read-out: % Degradation of MycC (L-363) 24 h, 3 μM; for Dmax at 6 µM: read-out: % Degradation of MycC (L-363) 24 h, 6 μM; for Dmax at 1 µM: read-out: % Degradation of MycC (L-363) 24 h, 1 μM; for Dmax at 0.5 µM: read-out: % Degradation of MycC (L-363) 24 h, 0.5 μM
T2 construct: endogenous in cells; host or cells: L363
T2 sequence (P01106 whole entry): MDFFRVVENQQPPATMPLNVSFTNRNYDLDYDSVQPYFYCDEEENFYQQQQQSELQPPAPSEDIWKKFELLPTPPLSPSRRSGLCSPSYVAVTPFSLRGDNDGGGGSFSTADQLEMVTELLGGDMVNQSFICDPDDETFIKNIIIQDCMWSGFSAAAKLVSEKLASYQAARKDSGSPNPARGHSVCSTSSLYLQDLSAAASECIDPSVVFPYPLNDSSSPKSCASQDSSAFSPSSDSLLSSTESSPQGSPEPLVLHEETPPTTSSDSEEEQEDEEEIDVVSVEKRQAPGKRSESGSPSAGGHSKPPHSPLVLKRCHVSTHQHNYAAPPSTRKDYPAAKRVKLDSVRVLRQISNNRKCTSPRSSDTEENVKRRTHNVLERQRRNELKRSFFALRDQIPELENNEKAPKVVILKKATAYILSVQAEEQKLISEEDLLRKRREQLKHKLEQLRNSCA
Outline: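 L363 suspension cells were seeded at 1E6 cells per well and exposed to compound (stock 10 mM in DMSO) for 24 hrs. Cells were collected, spun down, rinsed with PBS, lysed in RIPA buffer cocktail on ice, clarified and kept at −80 degrees. Lysate protein was quantified by BCA, and c-myc was measured on JESS by chemiluminescence with tubulin and GAPDH loading controls in the NIR channel.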

Structure (SMILES) | Dmax at 0.5 µM ([1]; SKNBE2 cells, 24 h, 0.5 μM) [%] | Dmax at 1 µM ([1]; SKNBE2 cells, 24 h, 1 μM) [%] | Dmax at 3 µM ([1]; SKNBE2 cells, 24 h, 3 μM) [%] | Dmax at 6 µM ([1]; SKNBE2 cells, 24 h, 6 μM) [%] | Dmax at 3 µM ([2]; L-363 cells, 24 h, 3 μM) [%] | Dmax at 6 µM ([2]; L-363 cells, 24 h, 6 μM) [%] | Dmax at 1 µM ([2]; L-363 cells, 24 h, 1 μM) [%] | Dmax at 0.5 µM [1] [%] | Dmax at 1 µM [1] [%] | Dmax at 3 µM [1] [%] | Dmax at 6 µM [1] [%] | Dmax at 1 µM [2] [%] | Dmax at 3 µM [2] [%] | Dmax at 6 µM [2] [%] | Dmax at 0.5 µM ([2]; L-363 cells, 24 h) [%]
NCC1CN(c2nccc(Nc3cc(C4CCCC4)[nH]n3)n2)CC(F)(F)C1 (stereo not shown) [Compound 115, 2-[5-(Aminomethyl)-3,3-difluoro-1-piperidyl]-N-(5-cyclopentyl-1H-pyrazol-3-yl)pyrimidin-4-amine] | 20 to 49 | 50 to 79 | 80 to 100 | 80 to 100 | 80 to 100 | 80 to 100 | – | – | – | – | – | – | – | – | –
NC[C@@H]1CN(c2nccc(Nc3cc(C4CCCC4)[nH]n3)n2)CCO1 [Compound 116, 2-[(2R)-2-(Aminomethyl)morpholin-4-yl]-N-(5-cyclopentyl-1H-pyrazol-3-yl)pyrimidin-4-amine] | < 20 | < 20 | 80 to 100 | 80 to 100 | 80 to 100 | 80 to 100 | < 20 | – | – | – | – | – | – | – | –
CNC[C@@H]1CN(c2nccc(Nc3cc(C4CCCC4)[nH]n3)n2)CCO1 [Compound 118, N-(5-Cyclopentyl-1H-pyrazol-3-yl)-2-[(2R)-2-(methylaminomethyl)morpholin-4-yl]pyrimidin-4-amine] | < 20 | 20 to 49 | < 20 | 80 to 100 | < 20 | – | < 20 | – | – | – | – | – | – | – | –
N#CC1(CN)CCCN(c2nccc(Nc3cc(C4CC4)[nH]n3)n2)C1 (stereo not shown) [Compound 119, 3-(Aminomethyl)-1-[4-[(5-cyclopropyl-1H-pyrazol-3-yl)amino]pyrimidin-2-yl]piperidine-3-carbonitrile] | – | – | – | – | – | – | – | 50 to 79 | 50 to 79 | 80 to 100 | 80 to 100 | 50 to 79 | 80 to 100 | 80 to 100 | –
NCC1CN(c2nccc(Nc3cc(C4CC4)[nH]n3)n2)CC(F)(F)C1 (stereo not shown) [Compound 121, 2-[5-(Aminomethyl)-3,3-difluoro-1-piperidyl]-N-(5-cyclopropyl-1H-pyrazol-3-yl)pyrimidin-4-amine] | – | – | – | – | – | – | – | 50 to 79 | 50 to 79 | 80 to 100 | 80 to 100 | 80 to 100 | 80 to 100 | 80 to 100 | –
NC[C@@H]1CN(c2nccc(Nc3cc(C4CC4)[nH]n3)n2)C[C@@H]1F [Compound 122-1, 2-[(3R,4R)-3-(Aminomethyl)-4-fluoro-pyrrolidin-1-yl]-N-(5-cyclopropyl-1H-pyrazol-3-yl)pyrimidin-4-amine] | 20 to 49 | 20 to 49 | 20 to 49 | 80 to 100 | 80 to 100 | 80 to 100 | 50 to 79 | – | – | – | – | – | – | – | 20 to 49
NC[C@H]1CN(c2nccc(Nc3cc(C4CC4)[nH]n3)n2)C[C@H]1F [Compound 122-2, 2-[(3S,4S)-3-(Aminomethyl)-4-fluoro-pyrrolidin-1-yl]-N-(5-cyclopropyl-1H-pyrazol-3-yl)pyrimidin-4-amine] | – | < 20 | 50 to 79 | 80 to 100 | 80 to 100 | 80 to 100 | 50 to 79 | – | – | – | – | – | – | – | 20 to 49
NC[C@@H]1CN(c2nccc(Nc3cc(C4CCCC4)[nH]n3)n2)C[C@@H]1F [Compound 123-1, 2-[(3R,4R)-3-(Aminomethyl)-4-fluoro-pyrrolidin-1-yl]-N-(5-cyclopentyl-1H-pyrazol-3-yl)pyrimidin-4-amine] | – | < 20 | 50 to 79 | 80 to 100 | 80 to 100 | 80 to 100 | 20 to 49 | – | – | – | – | – | – | – | < 20

Reference: patent US20250170130A1, “MODULATORS OF MYC FAMILY PROTO-ONCOGENE PROTEIN” (Nalo Therapeutics, priority 2022, published 2025)
